According to US10202378B2, “Therapeutic compounds and uses thereof” (GENENTECH, INC., priority 2015, dated 2019):

What was measured:
[1] = biological target: TAF1-BD2 (Homo sapiens, UniProt P21675); test: TAF1-BD2 TR-FRET Binding Assay; conditions: read-out: TAF1-BD2 HTRF IC50
[2] = biological target: TAF1-BD1 (Homo sapiens, UniProt P21675); test: TAF1-BD1 TR-FRET Binding Assay; conditions: read-out: TAF1-BD1 HTRF IC50

| Structure (SMILES) | IC50 [1] [nM] | IC50 [2] [nM] |
| --- | --- | --- |
| Cc1cc([C@](C)(O)C#Cc2cn(C)c(=O)c3[nH]c(C)c(C(=O)OCC(C)C)c23)no1 [Example 158, isobutyl 4-[(3R)-3-hydroxy-3-(5-methylisoxazol-3-yl)but-1-ynyl]-2,6-dimethyl-7-oxo-1H-pyrrolo[2,3-c]pyridine-3-carboxylate] | 50.2 | 112 |
| Cc1[nH]c2c(=O)n(C)cc(C#CC(C)(O)c3ccccc3)c2c1C(=O)OC(C)(C)C (stereo not drawn) [Example 162, tert-butyl 4-(3-hydroxy-3-phenyl-but-1-ynyl)-2,6-dimethyl-7-oxo-1H-pyrrolo[2,3-c]pyridine-3-carboxylate] | 54.4 | 318 |
| CC(=O)NCCC(C)(C)OC(=O)c1c(C)[nH]c2c(=O)n(C)cc(C#CC(C)(C)O)c12 [Example 164, (3-acetamido-1,1-dimethyl-propyl) 4-(3-hydroxy-3-methyl-but-1-ynyl)-2,6-dimethyl-7-oxo-1H-pyrrolo[2,3-c]pyridine-3-carboxylate] | 48.5 | 514 |
| CCNC(=O)c1c(C)[nH]c2c(=O)n(C)cc(C#CC(C)(C)O)c12 [Example 168, N-ethyl-4-(3-hydroxy-3-methyl-but-1-ynyl)-2,6-dimethyl-7-oxo-1H-pyrrolo[2,3-c]pyridine-3-carboxamide] | 1630 | 5790 |
| Cc1[nH]c2c(=O)n(C)cc(C#CC(C)(C)O)c2c1C(=O)NC(C)C [Example 169, 4-(3-hydroxy-3-methyl-but-1-ynyl)-N-isopropyl-2,6-dimethyl-7-oxo-1H-pyrrolo[2,3-c]pyridine-3-carboxamide] | 2670 | 5310 |
| Cc1[nH]c2c(=O)n(C)cc(C#CC(C)(C)O)c2c1C(=O)NC(C)(C)C [Example 170, N-tert-butyl-4-(3-hydroxy-3-methyl-but-1-ynyl)-2,6-dimethyl-7-oxo-1H-pyrrolo[2,3-c]pyridine-3-carboxamide] | 347 | 3620 |
| Cc1[nH]c2c(=O)n(C)cc(C#CC(C)(O)C3CC3)c2c1-c1nnc(C(C)(C)O)o1 (stereo not drawn) [Example 172, 4-(3-cyclopropyl-3-hydroxy-but-1-ynyl)-3-(5-(1-hydroxy-1-methyl-ethyl)-1,3,4-oxadiazol-2-yl)-2,6-dimethyl-1H-pyrrolo[2,3-c]pyridin-7-one] | 110 | 451 |
| CC(=O)NCc1nnc(-c2c(C)[nH]c3c(=O)n(C)cc(C#CC(O)(c4ccccc4)C(F)(F)F)c23)o1 (stereo not drawn) [Example 173, N-[[5-[2,6-dimethyl-7-oxo-4-(4,4,4-trifluoro-3-hydroxy-3-phenyl-but-1-ynyl)-1H-pyrrolo[2,3-c]pyridin-3-yl]-1,3,4-oxadiazol-2-yl]methyl]acetamide] | 117 | 490 |
| CC(=O)NCc1nnc(-c2c(C)[nH]c3c(=O)n(C)cc(C#CC(C)(O)C4CC4)c23)o1 (stereo not drawn) [Example 174, N-[[5-[4-(3-cyclopropyl-3-hydroxy-but-1-ynyl)-2,6-dimethyl-7-oxo-1H-pyrrolo[2,3-c]pyridin-3-yl]-1,3,4-oxadiazol-2-yl]methyl]acetamide] | 86.4 | 521 |
| Cc1nnc(-c2c(C)[nH]c3c(=O)n(C)cc(C#CC(C)(C)O)c23)o1 [Example 177, 4-(3-hydroxy-3-methyl-but-1-ynyl)-2,6-dimethyl-3-(5-methyl-1,3,4-oxadiazol-2-yl)-1H-pyrrolo[2,3-c]pyridin-7-one] | 50.7 | 543 |
| Cc1[nH]c2c(=O)n(C)cc(C#CC(O)(c3ccccc3)C(F)(F)F)c2c1-c1nnc(CCN(C)C)o1 (stereo not drawn) [Example 178, 3-[5-[2-(dimethylamino)ethyl]-1,3,4-oxadiazol-2-yl]-2,6-dimethyl-4-(4,4,4-trifluoro-3-hydroxy-3-phenyl-but-1-ynyl)-1H-pyrrolo[2,3-c]pyridin-7-one] | 88.1 | 725 |
| Cc1[nH]c2c(=O)n(C)cc(C#CC(O)(c3ccccc3)C(F)(F)F)c2c1-c1nnc(C2CC2)o1 (stereo not drawn) [Example 180, 3-(5-cyclopropyl-1,3,4-oxadiazol-2-yl)-2,6-dimethyl-4-(4,4,4-trifluoro-3-hydroxy-3-phenyl-but-1-ynyl)-1H-pyrrolo[2,3-c]pyridin-7-one] | 47.1 | 249 |
| Cc1[nH]c2c(=O)n(C)cc(C#CC(C)(O)C3CC3)c2c1-c1nnco1 (stereo not drawn) [Example 182, 4-(3-cyclopropyl-3-hydroxy-but-1-ynyl)-2,6-dimethyl-3-(1,3,4-oxadiazol-2-yl)-1H-pyrrolo[2,3-c]pyridin-7-one] | 53.5 | 285 |

More lines, in order of falling IC50 [1], values ahead:

| IC50 [1] [nM] | IC50 [2] [nM] | Structure (SMILES) |
| --- | --- | --- |
| 46.7 | 248 | Cc1[nH]c2c(=O)n(C)cc(C#CC(C)(O)C3CC3)c2c1-c1nnc(C2CCOC2)o1 (stereo not drawn) [Example 175, 4-(3-cyclopropyl-3-hydroxy-but-1-ynyl)-2,6-dimethyl-3-(5-tetrahydrofuran-3-yl-1,3,4-oxadiazol-2-yl)-1H-pyrrolo[2,3-c]pyridin-7-one] |
| 44.8 | 199 | CCc1nnc(-c2c(C)[nH]c3c(=O)n(C)cc(C#CC(C)(O)C4CC4)c23)o1 (stereo not drawn) [Example 181, 4-(3-cyclopropyl-3-hydroxy-but-1-ynyl)-3-(5-ethyl-1,3,4-oxadiazol-2-yl)-2,6-dimethyl-1H-pyrrolo[2,3-c]pyridin-7-one] |
| 38.3 | 241 | Cc1[nH]c2c(=O)n(C)cc(C#CC(C)(O)C3CC3)c2c1-c1nnc(C(C)CN2CCOCC2)o1 (stereo not drawn) [Example 176, 4-(3-cyclopropyl-3-hydroxy-but-1-ynyl)-2,6-dimethyl-3-[5-(1-methyl-2-morpholino-ethyl)-1,3,4-oxadiazol-2-yl]-1H-pyrrolo[2,3-c]pyridin-7-one] |
| 32.4 | 130 | Cc1[nH]c2c(=O)n(C)cc(C#CC(C)(O)c3ccccc3)c2c1C(=O)OCC(C)C (stereo not drawn) [Example 160, isobutyl 4-(3-hydroxy-3-phenyl-but-1-ynyl)-2,6-dimethyl-7-oxo-1H-pyrrolo[2,3-c]pyridine-3-carboxylate] |
| 31.2 | 214 | Cc1[nH]c2c(=O)n(C)cc(C#CC(O)(c3ccccc3)C(F)(F)F)c2c1C(=O)OCCC#N (stereo not drawn) [Example 166, 2-cyanoethyl 2,6-dimethyl-7-oxo-4-(4,4,4-trifluoro-3-hydroxy-3-phenyl-but-1-ynyl)-1H-pyrrolo[2,3-c]pyridine-3-carboxylate] |
| 29.2 | 137 | Cc1[nH]c2c(=O)n(C)cc(C#CC(C)(O)C3CC3)c2c1-c1nnc(CC(C)C)o1 (stereo not drawn) [Example 179, 4-(3-cyclopropyl-3-hydroxy-but-1-ynyl)-3-(5-isobutyl-1,3,4-oxadiazol-2-yl)-2,6-dimethyl-1H-pyrrolo[2,3-c]pyridin-7-one] |
| 27.3 | 283 | Cc1[nH]c2c(=O)n(C)cc(C#CC(C)(C)O)c2c1C(=O)OC(C)(C)CC#N [Example 163, (2-cyano-1,1-dimethyl-ethyl) 4-(3-hydroxy-3-methyl-but-1-ynyl)-2,6-dimethyl-7-oxo-1H-pyrrolo[2,3-c]pyridine-3-carboxylate] |
| 21.7 | 551 | Cc1[nH]c2c(=O)n(C)cc(C#CC(C)(C)O)c2c1C(=O)OC(C)(C)CCN [Example 165, (3-amino-1,1-dimethyl-propyl) 4-(3-hydroxy-3-methyl-but-1-ynyl)-2,6-dimethyl-7-oxo-1H-pyrrolo[2,3-c]pyridine-3-carboxylate] |
